For data set [1], the target named is T1, perforin delivered by KHYG1 NK cells (Homo sapiens, UniProt P14222).
T1 construct: The use of whole NK cells to deliver perforin provides a more realistic model of conditions in vivo; endogenous in cells; host or cells: KHYG1 human NK cells (effector); K562 leukemia target cells
T1 sequence (P14222 22-555): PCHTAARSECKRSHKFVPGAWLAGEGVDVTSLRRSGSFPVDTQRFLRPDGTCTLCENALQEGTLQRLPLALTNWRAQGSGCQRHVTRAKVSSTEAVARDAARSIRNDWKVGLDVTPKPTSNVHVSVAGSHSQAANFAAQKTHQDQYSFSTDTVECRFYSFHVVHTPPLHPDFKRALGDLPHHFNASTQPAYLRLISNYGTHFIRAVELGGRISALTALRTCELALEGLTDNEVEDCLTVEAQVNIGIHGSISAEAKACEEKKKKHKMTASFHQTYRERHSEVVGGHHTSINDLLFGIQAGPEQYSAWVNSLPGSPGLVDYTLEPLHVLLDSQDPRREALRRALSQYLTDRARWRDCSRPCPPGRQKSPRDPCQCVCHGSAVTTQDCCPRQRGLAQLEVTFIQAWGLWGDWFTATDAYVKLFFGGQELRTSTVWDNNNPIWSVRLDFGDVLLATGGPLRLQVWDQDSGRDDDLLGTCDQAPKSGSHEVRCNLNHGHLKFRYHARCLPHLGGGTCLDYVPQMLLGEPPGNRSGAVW
The data set is described as follows: KHYG1 inhibitory assay: lysis of 51Cr-labelled K562 target cells by KHYG1 NK cells. The format is cell-based. The conditions noted are these: 51Cr-labelled K562 target cells co-incubated with KHYG1 human NK cells, vs untreated control; for inhibition at 10 µM: n = 4; for KHYG1 Inhibition (% at 10 μM): n = 4, 10 µM. The method, then:
The inhibitory function is then determined by identifying the number of untreated or inhibitor treated effector cells required to kill the same number of targets.

Data set [2] in a line: Toxicity to KHYG1 NK cells (Trypan blue exclusion). The class given is cell-based, human. As to conditions: human, viability of KHYG1 NK cells after 24 h, n = 3. As to the method:
(§1) The toxicity assay was carried out in exactly the same manner as the killing assay above, but instead of adding the labelled K562 target cells, 100 μL of RPMI 0.1% BSA was added. Cells were incubated for 4 h at 37 °C and then washed ×3 in RPMI + 0.1% BSA. […] Trypan blue was added to each well. Viable (clear) cells and total (clear + blue) cells were counted, and the percentage of viable cells was calculated compared to DMSO treated cell control (% viability).

The nature of data set [3]: Solubility of the sodium salt in water. The format is physicochemical. As to conditions: sodium salt in water at room temperature. The method, then:
The compound was dissolved in water until it was no longer soluble in order to achieve a supersaturated concentration. The suspensions were sonicated for 15 min. prior to centrifugation at 13,000 revolutions per minute (rpm) for 6 minutes. Supernatants were removed and then recentrifuged prior to dilution of at least two fold in water to avoid precipitation during HPLC analysis.

Data set [4] in a line: Stability in solution (water, 20 °C, 24 h). The class given is physicochemical. As to conditions: sodium salt, 24 h at 20 °C in water. The method, then: Test compounds were incubated (10 μM; < 2.5% DMSO in final concentration) in Milli Q water (n=3 tubes) at 20 °C for 24 h. (Eppendorf Thermomixer Comfort). Aliquots were collected (25 μL) just before the incubation (time “0 min”) and at 24 h. These samples were stored in a -80 °C freezer until the analysis by liquid chromatography with tandem mass spectrometry spectrometry (LC-MS/MS) – see next section for method development. Samples were thawed on wet ice on the day of assay. Thawed aliquots were mixed by vortex mixer, 10 μL of the sample transferred to a clean tube, 40 μL of ice cold acetonitrile added (containing internal standard compound), then centrifuged at 13,000 rpm for 5 min, 40 μL of clear supernatant transferred to an HPLC insert and mixed with 80 μL of 0.01% formic acid in water. Ten to 20 μL was injected onto the LC-MS/MS system. Results are based on the peak area ratio of drug to internal standard at time “0 h” (i.e. before the incubation and at the end i.e. “24 h”).

The nature of data set [5]: Microsome stability, mouse. The class given is in vitro ADME. The conditions noted are these: parent (as sodium salt) remaining after 30 min, mouse microsomes. As to the method:
(§2) Microsome stability was carried out at Cyprotex using pooled human liver microsomes (male and female), pooled rat liver microsomes (male, Sprague Dawley rats), pooled mouse liver microsomes (male CD-1 mice) which were either prepared or purchased from a reputable commercial supplier. […] The final incubation volume was 25 μL. A control incubation was included for each compound tested where 0.1 M phosphate buffer pH 7.4 was added instead of NADPH (minus NADPH). Two control compounds were included with each species. All incubations were performed singularly for each test compound. Each compound was incubated for 0, 5, 15, 30 and 45 min. The control (minus NADPH) was incubated for 45 min only. The reactions were stopped by the addition of 50 μL methanol containing internal standard at the appropriate time points. The incubation plates were centrifuged at 2,500 rpm for 20 min at 4 °C to precipitate the protein. Following precipitation, the sample supernatants were combined in cassettes of up to 4 compounds and analysed using Cyprotex generic LC-MS/MS conditions. From a plot of ln peak area ratio (compound peak area/internal standard peak area) against time, the percentage compound remaining at 30 min was calculated. Results that were > 100% of matched control were defined as 100%.

The nature of data set [6]: Microsome stability, rat. The format is in vitro ADME. As to conditions: parent (as sodium salt) remaining after 30 min, rat microsomes. As to the method:
as §2

A short description of data set [7]: Microsome stability, human. The class given is in vitro ADME. As to conditions: parent (as sodium salt) remaining after 30 min, human microsomes. The method, then:
as §2

A short description of data set [8]: In vivo plasma pharmacokinetics in mice. As to conditions: mouse plasma, 10 mg/kg i.p. in 20% hydroxypropyl-β-cyclodextrin. As to the method: The in vivo PK parameters were measured for seven compounds selected on the basis of the in vitro assessment described above. Plasma pharmacokinetics were determined in male CD-1 mice for compounds 3, 10, 11, 26, 50, 58 and 59 (Table 6). Blood samples were collected at 5–8 time-points after dosing the compounds at 10 mg/kg in a solution of 20% hydroxypropyl-β-cyclodextrin by intraperitoneal (IP) injection. For analysis of the samples, chromatographic conditions were optimised by HPLC for each compound of interest and an internal standard. A liquid chromatography with tandem mass spectrometry (LC-MS/MS) method was then developed and validated for quantitation of each analyte.
PK studies were carried out in female C57BL/6J (female) mice using IP administration of test compound, dosing at 10 mg/kg in a solution of 20% hydroxypropyl-β-cyclodextrin. Mice (n=3 at each time point) were culled with excess inhalation of CO2 and blood collected by cardiac puncture at 5-8 time points after dosing in ice cold EDTA tubes. Plasma was separated by centrifuging at 6000 rpm for 5 min and stored at -80°C until analysis by LC-MS/MS. Frozen plasma was thawed on wet ice on the day of analysis. Ten μL of sample was transferred to a clean microcentrifuge tube and mixed with ice cold acetonitrile (40 μL containing internal standard) to precipitate the plasma proteins. The tubes were centrifuged at 13000 rpm for 5 min to obtain a clear supernatant which was mixed with 0.01% formic acid-water (1:2). Ten to twenty µL was injected into the LC-MS/MS to measure the analyte concentration in the sample. The samples were quantitated against a calibration curve of known analyte concentrations run in test species blank plasma (sourced from Innovative Research, USA). The concentration vs time data was then fitted into a pharmacokinetic software program (Phoenix WinNonlin v6.2) to calculate the PK parameters including T½, Cmax and AUC0-∞.

Data set [9] has as its target T2, recombinant perforin (Mus musculus, UniProt P10820).
T2 sequence (P10820 21-554): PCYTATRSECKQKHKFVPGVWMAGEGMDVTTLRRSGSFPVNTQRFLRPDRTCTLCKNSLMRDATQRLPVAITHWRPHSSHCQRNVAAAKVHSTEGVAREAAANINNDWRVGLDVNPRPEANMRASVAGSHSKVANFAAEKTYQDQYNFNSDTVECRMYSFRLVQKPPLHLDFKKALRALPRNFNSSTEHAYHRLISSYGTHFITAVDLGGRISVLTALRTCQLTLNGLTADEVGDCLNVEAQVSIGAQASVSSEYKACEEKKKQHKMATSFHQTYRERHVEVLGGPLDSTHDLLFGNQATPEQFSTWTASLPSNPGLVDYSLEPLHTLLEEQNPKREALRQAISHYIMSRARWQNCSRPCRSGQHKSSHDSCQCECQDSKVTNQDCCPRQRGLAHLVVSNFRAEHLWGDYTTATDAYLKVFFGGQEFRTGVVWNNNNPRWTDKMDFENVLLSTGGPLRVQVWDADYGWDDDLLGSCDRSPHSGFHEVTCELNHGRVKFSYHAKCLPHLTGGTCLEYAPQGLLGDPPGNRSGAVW
The data set is described as follows: Inhibition of perforin-mediated lysis of Jurkat cells (51Cr release). The class given is cell-based. The conditions noted are these: recombinant perforin pre-incubated with compound 30 min; 51Cr-labelled Jurkat cells, 0.1% BSA, 4 h. From the text:
The supernatant was collected and assessed for its radioactive content on a gamma counter (Wallac Wizard 1470 automatic gamma counter).

Data set [10] relates to KHYG1 NK cells. The data set can be described thus: Toxicity to KHYG1 NK cells (Trypan blue exclusion). The conditions noted are these: viability of KHYG1 NK cells after 24 h, n = 3. The format is cell-based, human. As to the method:
as §1

Some results are limits rather than exact numbers.

As usually defined, the inhibition is the drop in the measured response relative to a control, in per cent. By viability is commonly meant a per cent measure of how many cells are alive, often set against a control. Higher therefore signals less harm to the cells. By solubility is commonly meant the concentration that dissolves in the medium under given conditions. What is called Cmax is the highest concentration seen after dosing. For `CN1Cc2cc(-c3ccc(-c4cnc(F)c(NS(=O)(=O)c5ccc(F)cc5F)c4)s3)ccc2C1=O` [Compound 10, 2,4-Difluoro-N-(2-fluoro-5-(5-(2-methyl-1-oxoisoindolin-5-yl)thiophen-2-yl)pyridin-3-yl)benzenesulphonamide], in data set [1], the inhibition at 10 µM came to 93% and the “KHYG1 Inhibition (% at 10 μM)” value came out at 92.5 ± 1.8%. The viability at 24 h, 10 µM in data set [2] was determined as 92 ± 3%. In data set [3], the Solubility entry is reported as “negative impact on solubility” and the solubility at 15 min worked out at 428 µg/mL. In [4], the “Stability in Solution (% parent remaining)” value is reported as 100%. In data set [5], the “Microsome Stability (%) Mouse” value is recorded as 96%. Also, in data set [6], the “Microsome Stability (%) Rat” value is listed as 100%. In addition, in data set [7], the “Microsome Stability (%) Human” value is reported as 94%. Also, in data set [8], the “AUC0-∞” value came out at 2885 µM·h, the peak level (Cmax) was 236 µM and the T1/2 is on record as 6.6 h.

Consider `CN1Cc2cc(-c3ccc(-c4cnc(Cl)c(NS(=O)(=O)c5ccc(F)cc5F)c4)s3)ccc2C1=O` [Compound 11, 2,4-Difluoro-N-(2-chloro-5-(5-(2-methyl-1-oxoisoindolin-5-yl)thiophen-2-yl)pyridin-3-yl)benzenesulphonamide], for which the inhibition at 10 µM in [1] is 95 ± 2.5%. In data set [2], the viability at 24 h, 10 µM worked out at 94 ± 5.3%. Besides, the solubility at 15 min in data set [3] is 4030 µg/mL. In [4], the “Stability in Solution (% parent remaining)” value is 100%. The “Microsome Stability (%) Mouse” value in [5] is recorded as 97%. The “Microsome Stability (%) Rat” value in data set [6] is on record as 99%. The “Microsome Stability (%) Human” value in data set [7] amounted to 95%. For the same compound, in data set [8], the “AUC0-∞” value was 2364 µM·h, the Cmax worked out at 149 µM and the T1/2 was 9.5 h.

Usually melting point stands for the temperature, or range, at which the solid turns liquid. Turning to `Cc1ccc(NS(=O)(=O)c2ccc(F)cc2F)cc1-c1ccc(-c2ccc3c(c2)CN(C)C3=O)s1` [Compound 13, 2,4-Difluoro-N-(4-methyl-3-(5-(2-methyl-1-oxoisoindolin-5-yl)thiophen-2-yl)phenyl)benzenesulfonamide], the melting point lay within 268 to 271 °C. In data set [9], the “Inhibition of Jurkat Cell Lysis IC50” value is on record as “complete loss of potency”. Besides, in data set [1], the inhibition at 10 µM was determined as 50% and the “KHYG1 Inhibition (% at 10 μM)” value is listed as 50.3 ± 8.5%. Besides, the viability at 24 h, 10 µM in data set [2] is 91.7 ± 10%.

`CN1Cc2cc(-c3ccc(-c4cncc(NS(=O)(=O)c5cccc(C#N)c5)c4)s3)ccc2C1=O` [Compound 49, 3-Cyano-N-(5-(5-(2-methyl-1-oxoisoindolin-5-yl)thiophen-2-yl)pyridin-3-yl)benzenesulfonamide] gave a melting point of 282 to 285 °C. The “Inhibition of Jurkat Cell Lysis IC50” value in data set [9] was “poor activity”. Moreover, the inhibition at 10 µM in data set [1] was 83.7 ± 3.2%. For the same compound, the viability at 24 h, 10 µM in data set [2] was found to be 94.4 ± 7.1%.

For `CN1Cc2cc(-c3ccc(-c4cncc(NS(=O)(=O)c5ccc(C(=O)O)cc5)c4)s3)ccc2C1=O` [Compound 55, 4-(N-(5-(5-(2-Methyl-1-oxoisoindolin-5-yl)thiophen-2-yl)pyridin-3-yl)sulfamoyl)benzoic acid], the melting point was over 310 °C. For the same compound, the “KHYG1 Viability (% at 10 μM)” value in [10] was “toxic to the NK cells”.

For the compound `CN1Cc2cc(-c3ccc(-c4cncc(NS(=O)(=O)c5ccccc5[N+](=O)[O-])c4)s3)ccc2C1=O` [Compound 58, N-(5-(5-(2-Methyl-1-oxoisoindolin-5-yl)thiophen-2-yl)pyridin-3-yl)-2-nitrobenzenesulfonamide], in data set [1], the inhibition at 10 µM is 96% and the “KHYG1 Inhibition (% at 10 μM)” value is 95.6 ± 1.9%. Further, the viability at 24 h, 10 µM in [2] amounted to 98.7 ± 1.5%. In [3], the solubility at 15 min amounted to 671 µg/mL. Moreover, the “Stability in Solution (% parent remaining)” value in data set [4] was found to be 100%. Further, the “Microsome Stability (%) Mouse” value in data set [5] is listed as 100%. Further, the “Microsome Stability (%) Rat” value in data set [6] was determined as 89%. In addition, the “Microsome Stability (%) Human” value in data set [7] is 73%. Also, in [8], the “AUC0-∞” value was 415 µM·h, the Cmax came to 105 µM and the T1/2 is 2.5 h.

For the origin of these results see PMC5500991, “Substituted arylsulphonamides as inhibitors of perforin-mediated lysis” (European Journal of Medicinal Chemistry, 2017).
